The structures appear in SMILES notation.

What all share (format): biochemical
One assay has as its target T1, FGFR1 V561M (Homo sapiens, UniProt P11362, V561M).
T1 construct: purchased Signalchem F04-13G
As to the kind of experiment: Assay I: inhibitory activity against FGFR mutants (HTRF KinEASE-TK). The settings on record: Table 1; ATP working concentration 5 μM, substrate TK 1 μM. Here is the method:
(§1) Assay I: Determination of Inhibitory Activity Against FGFR Mutants
(§2) 1×Kinase reaction buffer was formulated with 1×volume of 5× kinase reaction buffer and 4×volume of water; 5 mM MgCl2; and 1 mM DTT.
(§3) 2.3 Screening of Compounds: • 1. […] Adding 1 μl of the compound diluted in buffer to each well, sealing the plate with a sealing membrane and centrifuging the plate at 1000 g for 30 seconds and leaving it at room temperature for 10 minutes. • 6. Formulating 2.5×TK-substrate-biotin and ATP mixture with 1× enzyme reaction buffer and adding 2 μl of K-substrate-biotin/ATP mixture to the reaction plate. • 7. Sealing the plate with a sealing membrane and centrifuging the plate at 1000 g for 30 seconds and allowing it to react at room temperature for 50 minutes. • 8. […] 3. Data Analysis
(§4) 3.3 Calculation of IC50 and plotting of inhibition curves for the compounds.
(§5) The IC50 (half inhibition concentration) of a compound was obtained using the following non-linear fitting equation, wherein data analysis was performed using Graphpad 6.0 software.
(§6) Data were exported from Envision and analyzed manually. The ratios were converted to inhibition rates and IC50 was calculated by Prism GraphPad 6.0 from the inhibition rates. IC50 was calculated again by the ratios to verify accuracy of the results.
In general terms: In TR-FRET formats the signal depends on donor and acceptor labels being close together.

A further assay concerns the target T2, FGFR2 V564F (Homo sapiens, UniProt P21802, V564F).
T2 construct: purchased Signalchem F05-12FG
Described as above. The settings on record: Table 1; ATP working concentration 10 μM, substrate TK 1 μM. Here is the method: as §1, §2, §3, §4, §5, §6

A further assay deals with T3, FGFR3 V555M (Homo sapiens, UniProt P22607, V555M).
T3 construct: purchased Signalchem F06-12GG
Described as above. To be noted: Table 1; ATP working concentration 20 μM, substrate TK 1 μM. As for the experimental part:
as §1, §2
2.3 Screening of Compounds: • 1. Diluting a compound 4-fold in a dilution plate with DMSO, with a starting compound concentration of 2 mM (4 mM for Nentedanib). • 2. Diluting the compound 40-fold into 1× kinase reaction buffer and shaking it on a shaker for 20 minutes. • 3. […] Adding 1 μl of the compound diluted in buffer to each well, sealing the plate with a sealing membrane and centrifuging the plate at 1000 g for 30 seconds and leaving it at room temperature for 10 minutes. • 6. Formulating 2.5×TK-substrate-biotin and ATP mixture with 1× enzyme reaction buffer and adding 2 μl of K-substrate-biotin/ATP mixture to the reaction plate. • 7. Sealing the plate with a sealing membrane and centrifuging the plate at 1000 g for 30 seconds and allowing it to react at room temperature for 50 minutes. • 8. Formulating 4×Sa-XL 665 (250 nM) with HTRF assay buffer. • 9. Adding 5 μl Sa-XL 665 and 5 μl TK-Antibody-Cryptate to each well, centrifuging it at 1000 g for 30 seconds, and allowing it to react for 1 hour at room temperature. • 10. Reading fluorescence signals at 615 nm (Cryptate) and 665 nm (XL665) with Biotek. 3. Data Analysis
3.1 Calculation of the ratio for each well: the ratio was calculated as 665/615 nm.
as §4, §5, §6

In the next assay the target is T4, VEGFR2 (Homo sapiens, UniProt P35968).
T4 construct: purchased Carna 08-191
As to the kind of experiment: Assay I: kinase inhibition (HTRF KinEASE-TK), VEGFR2. To be noted: Table 1; ATP working concentration 5 μM, substrate TK 1 μM.

A further assay addresses T5, FGFR1 (Homo sapiens, UniProt P11362).
T5 construct: purchased Carna 08-133
As to the kind of experiment: Assay II: inhibitory activity against wild-type FGFR (HTRF KinEASE-TK). To be noted: Table 2, ATP working concentration 50 μM, substrate TK 1 μM. As for the experimental part:
(§7) Assay II: Determination of inhibitory activity against wild-type FGFR
as §2
(§8) 3. Formulating 2×FGFR1/FGFR2/FGFR3 with 1× of enzyme reaction buffer.
(§9) 4. Adding 2 μl FGFR1/FGFR2/FGFR3 kinase (formulated in step 3) to each well of the reaction plate.
(§10) 5. Adding 1 μl of the compound diluted in buffer to each well, sealing the plate with a sealing membrane and centrifuging the plate at 1000 g for 30 seconds and leaving it at room temperature for 10 minutes.
(§11) 6. Formulating 2.5×TK-substrate-biotin and ATP mixture with 1× enzyme reaction buffer and adding 2 μl of K-substrate-biotin/ATP mixture to the reaction plate.
(§12) 7. Sealing the plate with a sealing membrane and centrifuging the plate at 1000 g for 30 seconds and allowing it to react at room temperature for 50 minutes.
as §4, §5, §6

A further assay has as its target T6, FGFR2 (Homo sapiens, UniProt P21802).
T6 construct: purchased Carna 08-134
Described as above. To be noted: Table 2, ATP working concentration 50 μM, substrate TK 1 μM. Here is the method: as §7, §2, §8, §9, §10, §11, §12, §4, §5, §6

A further assay concerns the target T7, FGFR3 (Homo sapiens, UniProt P22607).
T7 construct: purchased Carna 08-135
Described as above. To be noted: Table 2, ATP working concentration 50 μM, substrate TK 1 μM. As for the experimental part:
as §7, §2, §8, §9, §10, §11, §12, §4, §5, §6

Another assay concerns the target FGFR3 K650E (Homo sapiens, UniProt P22607, K650E). The assay can be described thus: Assay I: inhibitory activity against FGFR mutants (HTRF KinEASE-TK). To be noted: Table 1; ATP working concentration 50 μM, substrate TK 1 μM. As for the experimental part:
as §1, §2, §3, §4, §5, §6

T4 sequence (P35968 20-1356): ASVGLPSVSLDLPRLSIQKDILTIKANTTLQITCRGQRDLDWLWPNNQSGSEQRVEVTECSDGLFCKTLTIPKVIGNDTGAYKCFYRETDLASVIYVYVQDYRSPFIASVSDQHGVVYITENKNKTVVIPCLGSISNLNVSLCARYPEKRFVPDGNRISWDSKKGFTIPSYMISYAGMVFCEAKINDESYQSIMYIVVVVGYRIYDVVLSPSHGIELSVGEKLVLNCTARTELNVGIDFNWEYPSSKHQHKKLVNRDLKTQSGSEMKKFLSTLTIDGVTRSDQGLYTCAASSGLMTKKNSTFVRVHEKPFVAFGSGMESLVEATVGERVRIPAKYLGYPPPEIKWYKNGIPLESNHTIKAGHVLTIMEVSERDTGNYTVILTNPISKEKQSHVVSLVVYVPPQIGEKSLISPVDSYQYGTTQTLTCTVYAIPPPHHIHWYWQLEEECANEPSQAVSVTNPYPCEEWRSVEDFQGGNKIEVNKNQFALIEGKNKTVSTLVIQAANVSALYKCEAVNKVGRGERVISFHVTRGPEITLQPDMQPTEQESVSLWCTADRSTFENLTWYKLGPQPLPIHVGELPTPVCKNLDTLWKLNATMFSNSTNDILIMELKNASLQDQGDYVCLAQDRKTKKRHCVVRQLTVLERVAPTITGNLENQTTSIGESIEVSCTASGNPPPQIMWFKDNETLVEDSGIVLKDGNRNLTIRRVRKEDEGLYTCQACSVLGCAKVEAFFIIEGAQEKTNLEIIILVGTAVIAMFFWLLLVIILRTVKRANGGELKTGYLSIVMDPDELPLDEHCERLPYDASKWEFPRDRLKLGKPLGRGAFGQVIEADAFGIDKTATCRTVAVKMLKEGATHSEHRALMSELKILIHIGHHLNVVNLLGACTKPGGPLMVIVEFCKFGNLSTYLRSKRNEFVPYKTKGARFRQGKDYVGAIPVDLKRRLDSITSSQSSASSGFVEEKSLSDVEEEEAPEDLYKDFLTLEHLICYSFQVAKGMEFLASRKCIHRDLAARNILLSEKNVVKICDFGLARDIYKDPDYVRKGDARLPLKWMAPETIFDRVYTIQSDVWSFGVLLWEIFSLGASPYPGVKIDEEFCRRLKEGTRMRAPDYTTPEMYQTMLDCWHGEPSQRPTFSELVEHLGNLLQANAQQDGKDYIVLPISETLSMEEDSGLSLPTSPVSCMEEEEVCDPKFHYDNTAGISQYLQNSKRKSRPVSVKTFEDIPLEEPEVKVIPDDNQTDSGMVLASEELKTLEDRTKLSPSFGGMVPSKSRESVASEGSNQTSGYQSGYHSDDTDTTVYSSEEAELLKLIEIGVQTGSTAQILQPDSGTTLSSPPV
FGFR3 K650E, sequence (P22607 23-806 K650E): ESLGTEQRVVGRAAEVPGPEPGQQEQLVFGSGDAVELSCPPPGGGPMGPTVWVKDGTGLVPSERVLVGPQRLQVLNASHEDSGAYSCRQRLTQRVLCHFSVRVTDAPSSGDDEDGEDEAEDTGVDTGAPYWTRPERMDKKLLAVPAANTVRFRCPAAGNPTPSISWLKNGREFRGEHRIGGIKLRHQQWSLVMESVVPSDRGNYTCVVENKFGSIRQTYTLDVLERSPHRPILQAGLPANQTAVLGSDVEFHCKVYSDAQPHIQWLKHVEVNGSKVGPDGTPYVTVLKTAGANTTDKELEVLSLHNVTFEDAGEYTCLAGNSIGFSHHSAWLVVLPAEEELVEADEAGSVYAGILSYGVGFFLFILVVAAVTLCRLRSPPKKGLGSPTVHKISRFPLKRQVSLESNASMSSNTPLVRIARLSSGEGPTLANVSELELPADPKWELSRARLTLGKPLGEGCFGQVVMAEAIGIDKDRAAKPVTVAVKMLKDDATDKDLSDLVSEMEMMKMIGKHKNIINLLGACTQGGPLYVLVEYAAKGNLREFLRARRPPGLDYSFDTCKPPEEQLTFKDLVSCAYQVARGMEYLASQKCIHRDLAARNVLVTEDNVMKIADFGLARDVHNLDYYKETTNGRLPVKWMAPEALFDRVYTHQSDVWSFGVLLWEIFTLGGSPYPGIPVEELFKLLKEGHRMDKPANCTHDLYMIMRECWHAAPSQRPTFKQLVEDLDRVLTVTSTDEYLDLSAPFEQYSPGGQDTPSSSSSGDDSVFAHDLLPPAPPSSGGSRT
T3 sequence (P22607 23-806 V555M): as the sequence (P22607 23-806 K650E) above, with V533M, E628K counted along it
T5 sequence (P11362 22-822): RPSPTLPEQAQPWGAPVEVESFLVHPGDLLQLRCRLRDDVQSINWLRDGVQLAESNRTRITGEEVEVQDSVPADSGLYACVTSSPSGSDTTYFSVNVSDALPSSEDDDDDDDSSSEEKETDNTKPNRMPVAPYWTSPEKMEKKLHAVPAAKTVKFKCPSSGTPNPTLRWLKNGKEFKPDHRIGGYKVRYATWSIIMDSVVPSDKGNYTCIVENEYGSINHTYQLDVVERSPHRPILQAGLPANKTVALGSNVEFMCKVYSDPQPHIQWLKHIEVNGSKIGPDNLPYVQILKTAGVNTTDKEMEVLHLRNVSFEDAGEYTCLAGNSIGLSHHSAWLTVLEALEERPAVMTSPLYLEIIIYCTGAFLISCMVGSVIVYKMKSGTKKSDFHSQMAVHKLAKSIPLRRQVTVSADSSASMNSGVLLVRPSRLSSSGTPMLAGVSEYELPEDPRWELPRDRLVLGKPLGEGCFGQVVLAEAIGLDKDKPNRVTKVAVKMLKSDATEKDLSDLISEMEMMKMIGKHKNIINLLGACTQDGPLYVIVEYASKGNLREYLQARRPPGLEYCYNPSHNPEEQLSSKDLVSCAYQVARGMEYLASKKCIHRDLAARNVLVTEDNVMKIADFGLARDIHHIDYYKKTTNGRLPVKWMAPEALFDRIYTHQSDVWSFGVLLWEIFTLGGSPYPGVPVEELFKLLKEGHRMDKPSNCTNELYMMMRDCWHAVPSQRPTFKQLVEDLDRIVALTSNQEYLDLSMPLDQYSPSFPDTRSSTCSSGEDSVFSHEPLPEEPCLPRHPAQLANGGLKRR
T6 sequence (P21802 22-821): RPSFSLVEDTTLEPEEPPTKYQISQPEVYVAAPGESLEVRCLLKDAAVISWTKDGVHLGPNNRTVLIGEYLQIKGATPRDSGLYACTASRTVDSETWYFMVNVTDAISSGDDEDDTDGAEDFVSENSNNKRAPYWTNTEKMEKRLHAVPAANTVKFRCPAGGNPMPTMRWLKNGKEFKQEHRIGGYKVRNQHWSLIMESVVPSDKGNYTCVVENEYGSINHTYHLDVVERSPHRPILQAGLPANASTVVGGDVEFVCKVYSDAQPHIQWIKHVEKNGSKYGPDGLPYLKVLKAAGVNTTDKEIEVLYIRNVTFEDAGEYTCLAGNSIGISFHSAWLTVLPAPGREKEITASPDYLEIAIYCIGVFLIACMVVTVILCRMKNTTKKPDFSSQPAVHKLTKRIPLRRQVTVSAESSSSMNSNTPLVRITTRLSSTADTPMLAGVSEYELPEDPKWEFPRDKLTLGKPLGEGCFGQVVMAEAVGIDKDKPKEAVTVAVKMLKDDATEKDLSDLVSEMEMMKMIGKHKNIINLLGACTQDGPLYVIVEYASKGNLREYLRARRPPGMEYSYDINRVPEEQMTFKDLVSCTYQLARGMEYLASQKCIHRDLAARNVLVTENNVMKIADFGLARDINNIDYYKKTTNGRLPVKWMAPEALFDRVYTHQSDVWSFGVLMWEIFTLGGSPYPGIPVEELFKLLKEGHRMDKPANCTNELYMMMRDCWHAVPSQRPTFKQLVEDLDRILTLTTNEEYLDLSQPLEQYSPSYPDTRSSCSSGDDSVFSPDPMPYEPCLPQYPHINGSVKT
T7 sequence (P22607 23-806): as the sequence (P22607 23-806 K650E) above, with E628K counted along it
T2 sequence (P21802 22-821 V564F): as the sequence (P21802 22-821) above, with V543F counted along it
T1 sequence (P11362 22-822 V561M): as the sequence (P11362 22-822) above, with V540M counted along it

For `C[C@@H]1CN(c2ccc(NC(=O)c3n[nH]c4ccc(O[C@H](C)c5c(Cl)cncc5Cl)cc34)cc2)C[C@H](C)N1` [Compound 6, 5-((R)-1-(3,5-dichloropyridin-4-yl)ethoxy)-N-(4-((3S,5R)-3,5-dimethylpiperazin-1-yl)phenyl)-1H-indazole-3-carboxamide], the IC50 at FGFR1 V561M is 2.3 nM; on FGFR2 V564F, 0.66 nM; against FGFR3 V555M, 0.94 nM; on VEGFR2, 84.1 nM; against FGFR1, 27.7 nM; against FGFR2, 21.3 nM. Besides, half-maximal inhibition against FGFR3 (IC50) was put at 52.2 nM.

As to `CC(Oc1ccc2[nH]nc(C(=O)Nc3ccc(N4C[C@@H](C)N[C@@H](C)C4)nc3)c2c1)c1c(Cl)cncc1Cl` (stereo partly drawn) [Compound 8, 5-(1-(3,5-dichloropyridin-4-yl)ethoxy)-N-(6-((3S, 5R)-3,5-dimethylpiperazin-1-yl)pyridin-3-yl)-1H-indazole-3-carboxamide], the IC50 worked out at 2.3 nM at FGFR1 V561M; 4 nM against FGFR2 V564F; 2.6 nM on FGFR3 V555M; 224 nM at VEGFR2; 69.7 nM against FGFR1; 58.6 nM against FGFR2. Further, at FGFR3, the half-maximal inhibitory concentration (IC50) came to 106 nM.

As to `CC(Oc1ccc2[nH]nc(C(=O)Nc3ccc(N4CCN(C)CC4)cc3)c2c1)c1c(Cl)cncc1Cl` (centres unmarked) [Compound 9, 5-(1-(3,5-dichloropyridin-4-yl)ethoxy)-N-(4-(4-methylpiperazin-1-yl)phenyl)-1H-indazole-3-carboxamide], the IC50 was 1 nM at FGFR1 V561M; 0.94 nM against FGFR2 V564F; 1.1 nM against FGFR3 V555M; 152 nM against VEGFR2; 61 nM against FGFR1; 48.7 nM against FGFR2. At FGFR3, this compound showed an IC50 of 102 nM.

With `CC(Oc1ccc2[nH]nc(C(=O)Nc3cnn(C(C)CC#N)c3)c2c1)c1c(Cl)cncc1Cl` (centres unmarked) [Compound 5, N-(1-(1-cyanopropan-2-yl)-1H-pyrazol-4-yl)-5-(1-(3,5-dichloropyridin-4-yl)ethoxy)-1H-indazole-3-carboxamide], the IC50 against FGFR1 V561M was determined as 7.2 nM; against FGFR2 V564F it was 2.4 nM; at FGFR3 K650E, 33.4 nM; against FGFR3 V555M, 4.6 nM.

Consider `CC(Oc1ccc2[nH]nc(C(=O)Nc3cnn(CCO)c3)c2c1)c1c(Cl)cncc1Cl` (centres unmarked) [Compound 2, 5-(1-(3,5-dichloropyridin-4-yl)ethoxy)-N-(1-(2-hydroxyethyl)-1H-pyrazol-4-yl)-1H-indazole-3-carboxamide], for which the IC50 at FGFR1 V561M was 7 nM; on FGFR2 V564F, 2 nM; against FGFR3 K650E, 30 nM; at FGFR3 V555M it was 2.2 nM; against VEGFR2, 176 nM.

For the compound `CC(Oc1ccc2[nH]nc(C(=O)Nc3ccc(N4C[C@@H](C)N[C@@H](C)C4)cc3)c2c1)c1c(Cl)cncc1Cl` (stereo partly drawn) [Compound 1, 5-(1-(3,5-dichloropyridin-4-yl)ethoxy)-N-(4-((3S,5R)-3,5-dimethylpiperazin-1-yl)phenyl)-1H-indazole-3-carboxamide], the concentration for half-maximal inhibition (IC50) on FGFR1 V561M worked out at 6.3 nM; at FGFR2 V564F, 2.3 nM; against FGFR3 K650E it was 26.8 nM; at FGFR3 V555M, 8.6 nM.

Consider `C[C@@H](Oc1ccc2[nH]nc(C(=O)Nc3cnn(CCO)c3)c2c1)c1c(Cl)cncc1Cl` [Compound 7, (R)-5-(1-(3,5-dichloropyridin-4-yl)ethoxy)-N-(1-(2-hydroxyethyl)-1H-pyrazol-4-yl)-1H-indazole-3-carboxamide], for which the concentration for half-maximal inhibition (IC50) turned out to be 5.2 nM against FGFR1 V561M; 0.42 nM at FGFR2 V564F; 0.73 nM against FGFR3 V555M; 97.6 nM against VEGFR2; 27.5 nM at FGFR1; 7.6 nM on FGFR2. In addition, the IC50 at FGFR3 came to 42.6 nM.

For `CC(Oc1ccc2[nH]nc(C(=O)Nc3cnn(C4CCN(C)CC4)c3)c2c1)c1c(Cl)cncc1Cl` (centres unmarked) [Compound 14, 5-(1-(3,5-dichloropyridin-4-yl)ethoxy)-N-(1-(1-methylpiperidin-4-yl)-1H-pyrazol-4-yl)-1H-indazole-3-carboxamide], the IC50 against FGFR1 V561M turned out to be 0.47 nM; at FGFR2 V564F, 0.14 nM; on FGFR3 V555M, 0.27 nM; on VEGFR2 it was 24.7 nM; on FGFR1 it was 11.1 nM; against FGFR2, 9.5 nM. On FGFR3, this compound showed a half-inhibitory concentration (IC50) of 19.2 nM.

Take `CC(Oc1ccc2[nH]nc(C(=O)Nc3cnn(C4CC(O)C4)c3)c2c1)c1c(Cl)cncc1Cl` (centres unmarked) [Compound 12, 5-(1-(3,5-dichloropyridin-4-yl)ethoxy)-N-(1-(3-hydroxycyclobutyl)-1H-pyrazol-4-yl)-1H-indazole-3-carboxamide]: the IC50 against FGFR1 V561M is 1.9 nM; on FGFR2 V564F, 0.48 nM; against FGFR3 V555M, 0.74 nM; at VEGFR2, 208 nM; against FGFR1, 45.1 nM; against FGFR2 it was 24.5 nM. This compound also came in with an IC50 on FGFR3 of 42.9 nM.

With `CCN1CCN(c2ccc(NC(=O)c3n[nH]c4ccc(OC(C)c5c(Cl)cncc5Cl)cc34)cc2)CC1` (centres unmarked) [Compound 10, 5-(1-(3,5-dichloropyridin-4-yl)ethoxy)-N-(4-(4-ethylpiperazin-1-yl)phenyl)-1H-indazole-3-carboxamide], the IC50 against FGFR1 V561M came to 1.7 nM; against FGFR2 V564F it was 3.2 nM; against FGFR3 V555M it was 2 nM; on VEGFR2, 1390 nM; on FGFR1, 64.5 nM; at FGFR2, 48 nM. At FGFR3, half-maximal inhibition (IC50) was put at 98.8 nM.

A word on the IC50: it is the concentration that inhibits the measured activity by half. A lower IC50 goes with inhibition by little substance.

The values are drawn from patent US12630530B2, “FGFR inhibitor compound and use thereof” (HENAN MEDINNO PHARMACEUTICAL TECHNOLOGY CO., LTD., priority 2020, dated 2026).
